Publication PMC7614683, “A small molecule PI3Kα activator for cardioprotection and neuroregeneration” (Nature, 2023)
Where two headings read alike, the source gives them in different places.

Tests used:
HeLa cells = assay: TIRF microscopy of PIP3 and PI(3,4)P2 reporters, HeLa; assay type: cell-based, human
Procedure: Phosphoinositide reporters used were GFP-PH-ARNO^I303Ex2 (PIP3 reporter[41]) and mCherry-cPH-TAPP1x3 (PI(3,4)P2 reporter[41]). TIRF microscopy allows selective imaging of the small cell volume, including the plasma membrane, directly adjacent to the coverslip onto which cells have been seeded. HeLa or A549 cells were seeded in Matrigel-coated (Corning #354230; diluted in Opti-MEM at 1:50) 8-well chamber slides (glass bottom, 1.55 refractive index; Thermo Fisher Scientific #155409) at a density of 5,000 cells/well. […]
Image analyses of total reporter intensities were performed with the Fiji open source image analysis package. The region of interest (ROI) corresponding to the footprint of the individual cell across time points were defined using minimal intensity projection to select only pixels present across all time points, following prior subtraction of camera noise (rolling ball method, radius = 500 pixels) and xy drift correction, intensity levels over time were measured. […] All other quantifications were performed using the open source software R/RStudio. The values plotted in Fig. 3d (iii) represent mean±SEM, following signal scaling to minimum and maximum values of the normalised fluorescence intensity for each time point (Fn(t)). […]

LCK = LCK (Homo sapiens, UniProt P06239); assay: SelectScreen kinase profiling, LCK; assay type: biochemical
Sequence of LCK (P06239 whole entry): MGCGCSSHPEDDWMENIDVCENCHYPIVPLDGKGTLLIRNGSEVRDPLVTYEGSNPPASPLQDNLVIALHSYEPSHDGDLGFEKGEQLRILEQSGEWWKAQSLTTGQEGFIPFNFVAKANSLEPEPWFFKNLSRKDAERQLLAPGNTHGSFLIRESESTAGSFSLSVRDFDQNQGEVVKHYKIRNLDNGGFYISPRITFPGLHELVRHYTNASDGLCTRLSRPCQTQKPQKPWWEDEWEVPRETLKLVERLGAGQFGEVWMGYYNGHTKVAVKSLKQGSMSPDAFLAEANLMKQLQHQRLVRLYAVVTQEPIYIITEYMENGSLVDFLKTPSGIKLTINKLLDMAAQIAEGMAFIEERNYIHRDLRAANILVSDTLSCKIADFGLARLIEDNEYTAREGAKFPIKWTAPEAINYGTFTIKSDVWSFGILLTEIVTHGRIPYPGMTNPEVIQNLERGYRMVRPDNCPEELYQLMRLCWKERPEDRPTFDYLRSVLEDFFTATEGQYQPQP
Procedure: 133 protein kinases and 7 lipid kinases were counterscreened, with 1938 used at 1 μM, using the Adapta, Lantha and Z-LYTE assays (SelectScreen Kinase Profiling Service; Thermofisher – experimental details of these assays can be found here: https://www.thermofisher.com/uk/en/home/industrial/pharma-biopharma/drug-discovery-development/target-and-lead-identification-and-validation/kinasebiology/kinase-activity-assays.html. The tree represention in KinMap[59] generated courtesy of Cell Signaling Technology, Inc. (www.cellsignal.com). mTORC1 (mTOR/RAPTOR/LST8) protein complex and ATM kinase and substrates were produced as previously described[57],[60]. Screening of 1938 was conducted using SuperSep Phos-Tag 50 μmol/l 100 x 100 x 6.6 mm 17-well (192-18001/199-18011) gels. For ATM assays, 100 nM ATM was incubated for 30 min at 30°C with 5 μM GST-p53 and 1 mM ATP, in the absence or presence of 200 μM 1938 in ATM Kinase Buffer (50 mM HEPES pH 7.5, 100 mM NaCl, 10% glycerol, 2 mM […], 5 mM MgCl2). As a positive control for ATM activation, the same reaction was carried out with 100 nM ATM/5 μM GST-p53/1 mM ATP in the presence of 100 nM Mre11-Rad50-Nbs1 (MRN) complex, a known activator of ATM[61]. For mTORC1 assays, 50 nM mTORC1 complex (mTOR/LST8/RAPTOR) was incubated for 3 h at 30°C with 15 μM 4E-BP1, 10 mM MgCl2 and 250 μM ATP, in the absence or presence of 200 μM 1938. As a ‘positive’ control, a higher concentration (150 nM) of mTORC1 complex (mTOR/LST8/RAPTOR) was incubated for 3 h at 30°C with 15 μM 4E-BP1, 10 mM MgCl2 and 250 μM ATP. Kinase reactions were quenched by addition of SDS-PAGE Loading Buffer (as per manufacturer’s instructions) and freezing at -20°C before being run on the Phos-tag gels at 150 V for 90 min. Gels were then stained using InstantBlue™ Coomassie, and quantified using BioRad Image Lab Software. Kinase assays were carried out in triplicate.

Compound: CCN1CCN(c2ccc(Nc3cc(Nc4cccc5c4N(C(C)=O)CC5)ccn3)cc2)CC1 [Compound 1938]
- membrane-associated PI(3,4)P2 (biosensor) (HeLa cells): generation of membrane-associated PI(3,4)P2
- plasma membrane PIP3 (biosensor) (HeLa cells): acute and BYL719-sensitive burst of PIP3
- inhibition at 1 µM (LCK; read-out: % Inhibition Point 1): 60%
- inhibition at 1 µM (LCK; read-out: % Inhibition Point 2): 57%
- inhibition at 1 µM (LCK; read-out: % Inhibition mean): 58%
